Publication PMC5968561, “An effective strategy for recapitulating N-terminal heptad repeat trimers in enveloped virus surface glycoproteins for therapeutic applications” (Chemical Science, 2015)
Read-outs that look alike come from different tables or passages of the source. Positions of bridges follow the written chain, without caps; N, C: chain ends. Chains are numbered I, II in the order given.

What was measured:
HIV-1IIIB = format: cell-based
HIV-1BaL = format: cell-based
Cytotoxicity, XTT assay = format: cell-based; details: human, MT-2 cells, 4 days at 37°C, triplicate, mean ± SD
92TH009 (A/E, R5) = test: Infection by primary HIV-1 isolate, p24 ELISA; format: cell-based; details: CEMx174 5.25M7 cells, 100 TCID50, p24 ELISA day 7; triplicate, mean ± SD; read-out: EC50 for inhibiting 92TH009 (A/E, R5)
Experimental: (§1) HIV-1 infection assay. To measure the inhibitory activity of the peptides on infection of R5 primary HIV-1 isolates, US4/GS 007 (subtype B), 93IN101 (subtype C), and 92TH009 (subtype A/E), 50 µl of an inhibitor at graded concentration in triplicate was incubated with the same volume of a primary HIV-1 isolate at 100 TCIID50 at 37 °C for 30 min, followed by addition of 100 µl of CEMx174 5.25M7 cells (5×10^5/ml). After incubation at 37 °C overnight, the culture medium was replaced with fresh medium without inhibitor. On day 7 postinfection, the culture supernatants were collected for measuring p24 by ELISA, and the percent inhibition and EC50 values were calculated using Calcusyn

US4/GS 007 (B, R5) = test: Infection by primary HIV-1 isolate, p24 ELISA; format: cell-based; details: CEMx174 5.25M7 cells, 100 TCID50, p24 ELISA day 7; triplicate, mean ± SD; read-out: EC50 for inhibiting US4/GS 007 (B, R5)
Experimental: as §1

93IN101 (C, R5) = format: cell-based, HIV-1
Experimental: as §1

HIV-1 NL4-3(D36G) = test: Activity against T20-sensitive strain; format: cell-based; details: triplicate, mean ± SD, read-out: EC50, NL4-3 mutant D36G
[1] = tested on: HIV-1 Env-mediated cell–cell fusion; details: read-out: EC50 for inhibiting cell–cell fusion; HL2/3 and TZM-bl cells coincubated 6–8 h, 37°C, luciferase; triplicate, mean ± SD
Experimental: Cell-cell fusion assay. Cell-cell fusion assays were performed as described previously.1 HL2/3 cells, which stably
express HIV Gag, Env, Tat, Rev, and Nef proteins, as well as TZM-bl cells, which stably express large amounts of CD4
and CCR5, were obtained from the NIH AIDS Reference and Reagent Program (contributed by Drs. Barbara Felber and
George Pavlakis and Drs. John C. Kappes and Xiaoyun Wu, respectively). TZM-bl cells (2.5 × 10^4/well) and HL2/3 cells
(7.5 × 10^4/well) were coincubated in 96-well plates (Corning Costar) at 37°C in 5% CO2 in the presence of different
concentrations of inhibitors. After incubation for 6–8 h, the medium was aspirated, the cells were washed and lysed, and
luciferase activity was measured using the Luciferase Assay System (Promega, Madison, WI) on a SpectraMax M5 plate
reader (Molecular Devices, Sunnyvale, CA).

HIV-1 NL4-3 (36G)V38A = details: read-out: EC50, NL4-3 mutant (36G)V38A; T20-resistant strain; triplicate, mean ± SD
[2] = tested on: HIV-1 NL4-3 (36G)V38E/N42S; details: read-out: EC50, NL4-3 mutant (36G)V38E/N42S; T20-resistant strain; triplicate, mean ± SD
[3] = tested on: HIV-1 NL4-3 (36G)V38A/N42T; details: read-out: EC50, NL4-3 mutant (36G)V38A/N42T; T20-resistant strain; triplicate, mean ± SD
[4] = CD spectroscopy and CD thermal denaturation; format: physicochemical; details: 10 μM peptide in PBS pH 7.4
Description: software as described above. 2
Circular dichroism (CD) spectroscopy.

[5] = Sedimentation velocity analysis (SVA); format: physicochemical; set-up: Sedimentation coefficient: unit not given here; details: 120 μM in PBS pH 7.4, 60,000 rpm, 20 °C
Experimental: Sedimentation velocity analysis (SVA). All measurements were performed on a ProteomelabTMXL-A/XL-I analytical ultracentrifuge (Beckman Coulter, Fullerton, CA, USA) at 20 °C, as described previously. In brief, three-channel cells were used with an An-60 Tirotor. Lyophilized N-peptides were resuspended in ddH2O (pH 7.0) at ~1 mg/mL. The individual proteins and their mixtures with an equimolar amount of C34 peptide were prepared in PBS and incubated at 37 °C for 30 min. All samples were prepared at a final concentration of 120 μM and were initially scanned at 3000 rpm for 10 min to identify the appropriate wavelength for data collection. Data were collected at 60,000 rpm at a wavelength […]
of 280 nm. […]

proteinase K = proteinase K (Parengyodontium album, UniProt P06873); test: Metabolic stability in proteinase K solution; format: in vitro ADME; details: 10 μg/mL, LC-MS/MS, compared with T20
Chain of proteinase K (P06873 106-384): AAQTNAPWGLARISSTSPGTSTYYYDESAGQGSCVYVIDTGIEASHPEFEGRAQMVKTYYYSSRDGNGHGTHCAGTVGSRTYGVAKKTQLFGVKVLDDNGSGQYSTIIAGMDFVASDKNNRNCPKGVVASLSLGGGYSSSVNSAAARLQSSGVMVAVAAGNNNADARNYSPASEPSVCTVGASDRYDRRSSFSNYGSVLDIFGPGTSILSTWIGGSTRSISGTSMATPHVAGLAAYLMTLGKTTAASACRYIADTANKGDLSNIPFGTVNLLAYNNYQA
Experimental: (§2) Tricine-sodium dodecyl sulfate-polyacrylamide gel electrophoresis (Tricine-SDS-PAGE). Polyacrylamide gels (12%) and a BayGene Mini Cell were used for Tricine-SDS-PAGE. The cathode buffer consisted of 0.1 M Tricine, 0.1 M Tris, and 1% SDS, and the anode buffer was 0.2 M Tris. After incubation at 37 °C for 0–24 h, the samples were mixed with Tris-SDS-glycine sample buffer (Invitrogen, Carlsbad, CA) at a ratio of 1:1 and then loaded onto the gels (20 μL/well). Gel electrophoresis was first carried out at a constant voltage of 60 V at room temperature for 1 h and then carried out at a constant voltage of 120 V at room temperature for 2 h. The gel was then stained with Bio-Rad Bio-Safe […]
(§3) Binding assays by size-exclusion chromatography. C34 was mixed with N-peptides (final concentration = 0.20 mM) at a molar ratio of 1:1 in PBS (pH 7.4) and incubated at 37 °C for 30 min. The peptide or peptide mixture (20 μL) was applied to a Phenomenex BioSep-SEC-s2000, 300 mm × 7.80 mm HPLC column equilibrated with PBS (pH 7.4) and eluted at 0.6 mL/min, and the fractions were monitored at 210 nm. Column pressure was 3.5 Mpa.
(§4) Qualification assay. Chromatographic analyses were performed using an ODS-C8 column (5 μm, 100 mm × 2.0mm ID) kept at ambient temperature. The mobile phase was composed of acetonitrile-water-formic acid in the ratio of 60:40:0.1 (v/v/v) at a flow rate of 0.3 mL/min. […]

[6] = Metabolic stability in liver homogenate; format: in vitro ADME; details: SD rat, pooled from 3 rats, 4 mL Tris–HCl 50 mM pH 7.4 per g, 9,000 g supernatant, 10 μg/mL, 37°C, 0-120 min, LC-MS/MS, compared with T20
[7] = Metabolic stability in kidney homogenate; format: in vitro ADME; details: SD rat, pooled from 3 rats, 4 mL Tris–HCl 50 mM pH 7.4 per g, 9,000 g supernatant, 10 μg/mL, 37°C, 0-120 min, LC-MS/MS, compared with T20
[8] = Metabolic stability in rat plasma; format: in vitro ADME; details: 10 μg/mL, LC-MS/MS, compared with T20
Experimental: as §2, §3, §4

[9] = triplicate, mean ± SD, read-out: EC50 for inhibiting HIV-1IIIB infection
[10] = triplicate, mean ± SD, read-out: EC50 for inhibiting HIV-1BaL infection
[11] = CEMx174 5.25M7 cells, 100 TCID50, p24 ELISA day 7, triplicate, mean ± SD, read-out: EC50 for inhibiting 93IN101 (C, R5)

## I: Ac-SEIVKKINNIERAIEAQQKLLQLTVWGIKQLQARIL-NH2 / II: Ac-SEIVKKINNIERAIEAQQKLLQLTVWGIKQLQARIL-NH2 / III: Ac-SEIVKKINNIERAIEAQQKLLQLTVWGIKQLQARIL-NH2 (amide I:6-III:11, I:11-II:6, II:11-III:6) [(N36MEK2)3]
HIV-1IIIB; [9]
  EC50: 4.7 ± 0.6 nM
HIV-1BaL; [10]
  EC50: 20.4 ± 2.5 nM
Cytotoxicity, XTT assay
  CC50 at 96 h: 18900 ± 2600 nM
92TH009 (A/E, R5)
  EC50: 1.5 ± 0.6 nM
US4/GS 007 (B, R5)
  EC50: 7.1 ± 2.5 nM
93IN101 (C, R5); [11]
  EC50: 5.2 ± 0.9 nM
HIV-1 NL4-3(D36G)
  EC50: 19.4 ± 1.9 nM
[1]
  EC50: 27.1 ± 2.5 nM
HIV-1 NL4-3 (36G)V38A
  EC50: 21.7 ± 2.3 nM
[2]
  EC50: 4.9 ± 2.9 nM
[3]
  EC50: 8.1 ± 1.2 nM

## Enfuvirtide
HIV-1IIIB
  EC50: 57.8 ± 3.2 nM
HIV-1BaL
  EC50: 34.1 ± 9.4 nM
92TH009 (A/E, R5)
  EC50: 19 ± 0.5 nM
US4/GS 007 (B, R5)
  EC50: 20.4 ± 2.9 nM
93IN101 (C, R5)
  EC50: 22.1 ± 0.9 nM
[1]
  EC50: 1.2 ± 0.01 nM
HIV-1 NL4-3 (36G)V38A
  EC50: 620 ± 103 nM
[2]
  EC50: > 2000 nM
[3]
  EC50: 539 ± 33 nM

## I: Ac-SEIVKKINNIERAIEAQQHLLQLTVWGIKQLQARIL-NH2 / II: Ac-SEIVKKINNIERAIEAQQHLLQLTVWGIKQLQARIL-NH2 / III: Ac-SEIVKKINNIERAIEAQQHLLQLTVWGIKQLQARIL-NH2 (amide I:6-III:11, I:11-II:6, II:11-III:6) [(N36MEK1)3]
HIV-1IIIB; [9]
  EC50: 11.2 ± 4.9 nM
HIV-1BaL; [10]
  EC50: 74.3 ± 6.5 nM
Cytotoxicity, XTT assay
  CC50 at 96 h: 17300 ± 1600 nM
92TH009 (A/E, R5)
  EC50: 14.5 ± 4.1 nM
US4/GS 007 (B, R5)
  EC50: 29.2 ± 11.2 nM
93IN101 (C, R5); [11]
  EC50: 20.1 ± 5.6 nM
HIV-1 NL4-3(D36G)
  EC50: 106 ± 16 nM
[1]
  EC50: 59 ± 8.7 nM
HIV-1 NL4-3 (36G)V38A
  EC50: 126 ± 31 nM
[2]
  EC50: 22.2 ± 2.8 nM
[3]
  EC50: 71 ± 6.1 nM

## I: Ac-SGIVQKINNIERAIEAQQHLLQLTVWGIKQLQARIL-NH2 / II: Ac-SGIVQKINNIERAIEAQQHLLQLTVWGIKQLQARIL-NH2 / III: Ac-SGIVQKINNIERAIEAQQHLLQLTVWGIKQLQARIL-NH2 (amide I:6-III:11, I:11-II:6, II:11-III:6) [(N36M)3]
HIV-1IIIB; [9]
  EC50: 2.67 ± 0.1 nM
HIV-1BaL; [10]
  EC50: 8.6 ± 3.1 nM
Cytotoxicity, XTT assay
  CC50 at 96 h: > 50000 nM
92TH009 (A/E, R5)
  EC50: 1.5 ± 0.1 nM
US4/GS 007 (B, R5)
  EC50: 9.4 ± 1.2 nM
93IN101 (C, R5); [11]
  EC50: 5.9 ± 2 nM
HIV-1 NL4-3(D36G)
  EC50: 20.2 ± 2.7 nM
[4]; CD at 222 nm, 15 to 90 °C at 2 °C/min
  Tm (thermal unfolding transition): > 90 °C
[4]; CD, mean residue ellipticity at 222 nm
  Helicity: 82%
[5]; 280 nm, SEDFIT
  Sedimentation coefficient: 1.39
[5]; oligomeric state
  Observed molecular mass (SVA): 12.5 kDa
Proteinase K
  Metabolic stability in proteinase K solution: dramatically increased in vitro metabolic stability over T20
[6]
  Metabolic stability in liver homogenate: dramatically increased in vitro metabolic stability over T20
[7]
  Metabolic stability in kidney homogenate: dramatically increased in vitro metabolic stability over T20
[8]
  Metabolic stability in rat plasma: dramatically increased in vitro metabolic stability over T20
[1]
  EC50: 4 ± 0.4 nM
HIV-1 NL4-3 (36G)V38A
  EC50: 14.5 ± 1.5 nM
[2]
  EC50: 6 ± 3.7 nM
[3]
  EC50: 10.2 ± 1.3 nM
